Results as given in US20250066370A1, “BICYCLIC TRIAZINE DERIVATIVES FOR THE TREATMENT OF CANCER” (DEUTSCHES KREBSFORSCHUNGSZENTRUM, priority 2022, published 2025).

Experiments:
[1] = system: CAL-120, human breast adenocarcinoma cells; test: Proliferation assay CAL-120 (crystal violet); assay type: cell-based; settings: 96 h, CAL-120 parental cells, 4 days, median, read-out: Prolif-CAL-120, IC50 - [mol/l] (median)
Method: Human tumour cells were originally obtained from the American Type Culture Collection (ATCC), or from the Deutsche Sammlung von Mikroorganismen und Zellkulturen (DSMZ, German Collection of Microorganisms and Cell Cultures). Cultivated tumour cells (CAL-120, human breast adenocarcinoma cells, DSMZ ACC-459; MDA-MB-231, human breast cancer cells, ATCC HTB-26) were plated at a density of 4,000 cells/well in a 96-well multitier plate in 200 microL of their respective growth medium supplemented 10% fetal calf serum. After 24 hours, the cells of one plate (zero-point plate) were stained with crystal violet (see below), while the medium of the other plates was supplemented with the test substances in various concentrations (0 micromol/L, as well as in the range of 0.01-10 micromol/L; the final concentration of the solvent dimethyl sulfoxide was adjusted to 0.1%) using a Tecan HP D300 Digital Dispenser. The cells were incubated for 4 days in the presence of test substances. Cell proliferation was determined by staining the cells with crystal violet: the cells were fixed by adding 20 microL/measuring point of an 11% glutaric aldehyde solution for 15 minutes at room temperature. After three washing cycles of the fixed cells with water, the plates were dried at room temperature. The cells were stained by adding 100 microL/measuring point of a 0.1% crystal violet solution (pH 3.0). After three washing cycles of the stained cells with water, the plates were dried at room temperature. The dye was dissolved by adding 100 microL/measuring point of a 10% acetic acid solution. The extinction was determined by photometry at a wavelength of 595 nm. The change of cell number, in percent, was calculated by normalization of the measured values to the extinction values of the zero-point plate (=0%) and the extinction of the untreated (0 μM) cells (=100%). The IC50 values (inhibitory concentration at 50% of maximal effect) were determined by means of a 4 parameter fit.

[2] = target: CDK12 (Homo sapiens (Human), UniProt Q9NYV4); test: CDK12 nuclear protein level: immunofluorescence/high content analysis in CAL-120 cells; assay type: cell-based; settings: 24 h, nuclear CDK12 staining intensity, median, read-out: CDK12 degradation IF, DC50 - [mol/l] (median)
Method: In the context of the present invention, the term “DC50 CDK12” refers to the DC50 values obtained according to the assay described in this section (7) herein below, i.e. the DC50 values for the degradation of CDK12.
CAL-120 human breast cancer cells (DSMZ ACC 459) are seeded in 1536-well microtiter plates (800 cells per well) containing 50 nanoL of compounds in Dose-Response. Control wells received DMSO or Example 4. Plates are then incubated for 24 h at 37° C. in an humidified incubator and fixed with 4% PFA for 10 min. Then immunofluorescence (IF) against CDK12 (CellSignalling CDK12 Antibody #11973, rabbit, 1:100 dilution) is performed using standard IF protocols. Cells are then stained with Hoechst 33342 (Life Technologies, H-1399, 0.1 microg/ml) and imaged on an automated confocal microscopy system (e.g. Perkin Elmer Opera Phenix). Nuclear and cytoplasmic intensity as well as the nuclear/cytoplasmic intensity ratio is determined by automated image analysis using custom generated scripts (MetaXpress). Data is then transferred to Genedata Screener software, normalized to DMSO and control and DC50 values (degrading concentration to achieve 50% reduction of nuclear CDK12 staining intensity relative to controls) are reported.

[3] = target: CDK2/CyclinE (Homo sapiens (Human), UniProt P24941); test: CDK2/CycE kinase assay (TR-FRET); assay type: biochemical; settings: 2 mM ATP (high ATP); median; read-out: CDK2/CyclinE, 2 mM ATP (high ATP), IC50 - [mol/l] (median)
Text: CDK2/CycE-inhibitory activity of compounds of the present invention was quantified employing the CDK2/CycE TR-FRET assay as described in the following paragraphs.
Recombinant fusion proteins of GST and human CDK2 and of GST and human CycE, expressed in insect cells (Sf9) and purified by Glutathion-Sepharose affinity chromatography, were purchased from ProQinase GmbH (Freiburg, Germany). As substrate for the kinase reaction biotinylated peptide biotin-Ttds-YISPLKSPYKISEG (C-terminus in amid form) was used which can be purchased e.g. form the company JERINI peptide technologies (Berlin, Germany).
For the assay 50 nanoL of a 100 fold concentrated solution of the test compound in DMSO was pipetted into a black low volume 384 well microtiter plate or a black 1536 well microtiter plate (both Greiner Bio-One, Frickenhausen, Germany), 2 microL of a solution of CDK2/CycE in aqueous assay buffer [50 millimol/L Tris/HCl PH 8.0, 10 millimol/L MgCl2, 1.0 millimol/L dithiothreitol, 0.1 millimol/L sodium ortho-vanadate, 0.01% (v/v) Nonidet-P40 (Sigma)] were added and the mixture was incubated for 15 min at 22° C. to allow pre-binding of the test compounds to the enzyme before the start of the kinase reaction. Then the kinase reaction was started by the addition of 3 microL of a solution of adenosine-tri-phosphate (ATP, 3.33 millimol/L=>final conc. in the 5 microL assay volume is 2 millimol/L) and substrate (1.25 micromol/L=>final conc. in the 5 microL assay volume is 0.75 micromol/L) in assay buffer and the resulting mixture was incubated for a reaction time of 25 min at 22° C. The concentration of CDK2/CycE was adjusted depending of the activity of the enzyme lot and was chosen appropriate to have the assay in the linear range, typical concentrations were in the range of 10 ng/ml. The reaction was stopped by the addition of 3 microL of a solution of TR-FRET detection reagents (0.333 micromol/L streptavidine-XL665 [Cisbio Bioassays, Codolet, France] and 1.67 nanomol/L anti-RB (pSer807/pSer811)-antibody from BD Pharmingen [#558389] and 2 nanomol/L LANCE EU-W1024 labeled anti-mouse IgG antibody [Perkin-Elmer, product no. AD0077, as an alternative a Terbium-cryptate-labeled anti-mouse IgG antibody from Cisbio Bioassays can be used]) in an aqueous EDTA-solution (167 millimol/L EDTA, 0.2% (w/v) bovine serum albumin in 100 millimol/L HEPES pH 7.5).
The resulting mixture was incubated 1 h at 22° C. to allow the formation of complex between the phosphorylated biotinylated peptide and the detection reagents. Subsequently the amount of phosphorylated substrate was evaluated by measurement of the resonance energy transfer from the Eu-chelate to the streptavidine-XL. Therefore, the fluorescence emissions at 620 nm and 665 nm after excitation at 350 nm was measured in a TR-FRET reader, e.g. a Pherastar (BMG Labtechnologies, Offenburg, Germany) or a Viewlux (Perkin-Elmer). The ratio of the emissions at 665 nm and at […] was taken as the measure for the amount of phosphorylated substrate. The data were normalised (enzyme reaction without inhibitor=0% inhibition, all other assay components but no enzyme=100% inhibition).

Chain of CDK12 (Q9NYV4 whole entry): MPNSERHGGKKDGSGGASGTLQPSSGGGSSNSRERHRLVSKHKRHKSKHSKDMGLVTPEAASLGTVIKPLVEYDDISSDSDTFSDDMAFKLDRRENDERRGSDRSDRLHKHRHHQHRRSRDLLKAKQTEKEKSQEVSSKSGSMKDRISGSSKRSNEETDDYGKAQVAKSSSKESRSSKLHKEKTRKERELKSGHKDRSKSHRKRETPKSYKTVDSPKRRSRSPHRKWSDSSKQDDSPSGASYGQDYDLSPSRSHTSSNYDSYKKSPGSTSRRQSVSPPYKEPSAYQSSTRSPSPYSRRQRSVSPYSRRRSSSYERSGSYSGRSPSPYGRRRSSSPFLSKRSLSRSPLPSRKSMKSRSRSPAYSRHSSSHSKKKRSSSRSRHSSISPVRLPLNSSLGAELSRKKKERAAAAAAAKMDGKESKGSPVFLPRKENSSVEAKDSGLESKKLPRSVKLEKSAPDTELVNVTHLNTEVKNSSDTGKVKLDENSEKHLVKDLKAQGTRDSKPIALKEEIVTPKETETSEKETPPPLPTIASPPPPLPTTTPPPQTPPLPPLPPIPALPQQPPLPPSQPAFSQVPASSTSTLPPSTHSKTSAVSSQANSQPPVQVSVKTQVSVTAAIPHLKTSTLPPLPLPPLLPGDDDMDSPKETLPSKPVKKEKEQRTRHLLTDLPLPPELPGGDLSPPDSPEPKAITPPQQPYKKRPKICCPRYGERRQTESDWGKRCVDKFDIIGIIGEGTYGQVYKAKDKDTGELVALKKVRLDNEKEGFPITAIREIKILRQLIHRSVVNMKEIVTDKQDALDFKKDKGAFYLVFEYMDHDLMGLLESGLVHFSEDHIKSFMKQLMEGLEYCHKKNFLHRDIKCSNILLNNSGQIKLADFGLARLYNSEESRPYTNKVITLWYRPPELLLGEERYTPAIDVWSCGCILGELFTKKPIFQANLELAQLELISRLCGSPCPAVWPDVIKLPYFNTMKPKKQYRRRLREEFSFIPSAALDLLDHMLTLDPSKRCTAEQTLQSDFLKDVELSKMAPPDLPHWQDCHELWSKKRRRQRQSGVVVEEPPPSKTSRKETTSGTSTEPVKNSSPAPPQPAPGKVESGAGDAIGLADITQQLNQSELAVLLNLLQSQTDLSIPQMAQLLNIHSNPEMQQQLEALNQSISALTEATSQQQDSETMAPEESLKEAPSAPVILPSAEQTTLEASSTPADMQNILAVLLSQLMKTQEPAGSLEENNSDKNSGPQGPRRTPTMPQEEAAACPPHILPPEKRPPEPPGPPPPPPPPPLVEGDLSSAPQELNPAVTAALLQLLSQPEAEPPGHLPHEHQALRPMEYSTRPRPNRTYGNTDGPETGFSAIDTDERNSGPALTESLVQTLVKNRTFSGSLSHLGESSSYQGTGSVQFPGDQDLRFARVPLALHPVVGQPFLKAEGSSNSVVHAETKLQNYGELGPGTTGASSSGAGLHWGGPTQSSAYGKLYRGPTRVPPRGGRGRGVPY
Chain of CDK12 (O75909 whole entry partner): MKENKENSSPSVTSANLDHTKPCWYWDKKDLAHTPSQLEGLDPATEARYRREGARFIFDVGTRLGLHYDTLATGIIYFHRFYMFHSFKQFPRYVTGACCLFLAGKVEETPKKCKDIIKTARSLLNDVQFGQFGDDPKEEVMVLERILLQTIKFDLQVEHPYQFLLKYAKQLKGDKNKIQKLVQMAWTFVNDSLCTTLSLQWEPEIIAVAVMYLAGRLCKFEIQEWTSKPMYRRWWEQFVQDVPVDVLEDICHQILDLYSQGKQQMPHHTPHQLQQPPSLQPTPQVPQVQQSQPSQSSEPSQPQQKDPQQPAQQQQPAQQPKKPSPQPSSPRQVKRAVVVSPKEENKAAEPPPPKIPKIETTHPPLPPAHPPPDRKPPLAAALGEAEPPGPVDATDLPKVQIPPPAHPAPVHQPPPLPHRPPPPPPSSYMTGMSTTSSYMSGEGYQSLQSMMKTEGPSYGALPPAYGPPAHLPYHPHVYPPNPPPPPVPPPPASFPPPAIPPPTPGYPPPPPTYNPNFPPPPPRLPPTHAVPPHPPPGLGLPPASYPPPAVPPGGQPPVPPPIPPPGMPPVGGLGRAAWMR

| SMILES | DC50 [2] | IC50 [3] | IC50 [1] |
| --- | --- | --- | --- |
| FC(F)(F)c1ccc(-c2nnc(CNc3nc(N4CCOCC4)nc4c(Br)cnn34)[nH]2)cc1 [Example 1, 8-bromo-2-(morpholin-4-yl)-N-({5-[4-(trifluoromethyl)phenyl]-4H-1,2,4-triazol-3-yl}methyl)pyrazolo[1,5-a][1,3,5]triazin-4-amine] | 2380 nM | 9810 nM | 580 nM |
| FC(F)(F)Oc1ccc(-c2nnc(CNc3nc(N4CCOCC4)nc4c(C(F)(F)F)cnn34)[nH]2)cc1 [Example 5, 2-(morpholin-4-yl)-N-({5-[4-(trifluoromethoxy)phenyl]-4H-1,2,4-triazol-3-yl}methyl)-8-(trifluoromethyl)pyrazolo[1,5-a][1,3,5]triazin-4-amine] | 1000 nM | > 20000 nM | 319 nM |
| FC(F)(F)c1ccc(-c2cnc(CNc3nc(N4CCOCC4)nn4c(C(F)(F)F)cnc34)[nH]2)cc1 [Example 7, 2-(morpholin-4-yl)-7-(trifluoromethyl)-N-({5-[4-(trifluoromethyl)phenyl]-1H-imidazol-2-yl}methyl)imidazo[2,1-f][1,2,4]triazin-4-amine] | 671 nM | > 20000 nM | 103 nM |
| FC(F)(F)Oc1ccc(-c2cnc(CNc3nc(N4CCOCC4)nn4c(C(F)(F)F)cnc34)[nH]2)cc1 [Example 8, 2-(morpholin-4-yl)-N-({5-[4-(trifluoromethoxy)phenyl]-1H-imidazol-2-yl}methyl)-7-(trifluoromethyl)imidazo[2,1-f][1,2,4]triazin-4-amine] | 893 nM | > 20000 nM | 90.7 nM |
| FC(F)(F)Oc1ccc(-c2cnc(CNc3nc(N4CCOCC4)nc4c(C(F)(F)F)cnn34)[nH]2)cc1 [Example 10, 2-(morpholin-4-yl)-N-({5-[4-(trifluoromethoxy)phenyl]-1H-imidazol-2-yl}methyl)-8-(trifluoromethyl)pyrazolo[1,5-a][1,3,5]triazin-4-amine] | > 1000 nM | > 20000 nM | 69.8 nM |
| COc1ccc(-c2nnc(CNc3nc(N4CCOCC4)nn4c(C(F)(F)F)cnc34)[nH]2)cn1 [Example 18, N-{[5-(6-methoxypyridin-3-yl)-4H-1,2,4-triazol-3-yl]methyl}-2-(morpholin-4-yl)-7-(trifluoromethyl)imidazo[2,1-f][1,2,4]triazin-4-amine] | > 1000 nM | – | 104 nM |
| FC(F)(F)c1ccc(-c2cnc(CNc3nc(N4CCOCC4)nc4c(C(F)(F)F)cnn34)[nH]2)cn1 [Example 24, 2-(morpholin-4-yl)-8-(trifluoromethyl)-N-({5-[6-(trifluoromethyl)pyridin-3-yl]-1H-imidazol-2-yl}methyl)pyrazolo[1,5-a][1,3,5]triazin-4-amine] | > 1000 nM | – | 30.2 nM |

Further lines, with some results ahead:

| DC50 [2] | IC50 [3] | SMILES | IC50 [1] |
| --- | --- | --- | --- |
| > 2790 nM | 11200 nM | FC(F)(F)Oc1ccc(-c2nnc(CNc3nc(N4CCOCC4)nc4c(Br)cnn34)[nH]2)cc1 [Example 2, 8-bromo-2-(morpholin-4-yl)-N-({5-[4-(trifluoromethoxy)phenyl]-4H-1,2,4-triazol-3-yl}methyl)pyrazolo[1,5-a][1,3,5]triazin-4-amine] | 370 nM |
| > 2880 nM | 7920 nM | FC(F)(F)c1ccc(-c2cnc(CNc3nc(N4CCOCC4)nc4c(Br)cnn34)[nH]2)cc1 [Example 3, 8-bromo-2-(morpholin-4-yl)-N-({5-[4-(trifluoromethyl)phenyl]-1H-imidazol-2-yl}methyl)pyrazolo[1,5-a][1,3,5]triazin-4-amine] | 173 nM |
| > 1000 nM | 10400 nM | FC(F)(F)Oc1ccc(-c2cnc(CNc3nc(N4CCOCC4)nc4c(Br)cnn34)[nH]2)cc1 [Example 4, 8-bromo-2-(morpholin-4-yl)-N-({5-[4-(trifluoromethoxy)phenyl]-1H-imidazol-2-yl}methyl)pyrazolo[1,5-a][1,3,5]triazin-4-amine] | 103 nM |
| 1000 nM | > 20000 nM | FC(F)(F)c1ccc(-c2nnc(CNc3nc(N4CCOCC4)nc4c(C(F)(F)F)cnn34)[nH]2)cc1 [Example 6, 2-(morpholin-4-yl)-8-(trifluoromethyl)-N-({5-[4-(trifluoromethyl)phenyl]-4H-1,2,4-triazol-3-yl}methyl)pyrazolo[1,5-a][1,3,5]triazin-4-amine] | 224 nM |
| 950 nM | > 20000 nM | FC(F)(F)c1ccc(-c2cnc(CNc3nc(N4CCOCC4)nc4c(C(F)(F)F)cnn34)[nH]2)cc1 [Example 9, 2-(morpholin-4-yl)-8-(trifluoromethyl)-N-({5-[4-(trifluoromethyl)phenyl]-1H-imidazol-2-yl}methyl)pyrazolo[1,5-a][1,3,5]triazin-4-amine] | 109 nM |
| 920 nM | > 20000 nM | FC(F)(F)c1ccc(-c2nnc(CNc3nc(N4CCOCC4)nn4c(C(F)(F)F)cnc34)[nH]2)cc1 [Example 11, 2-(morpholin-4-yl)-7-(trifluoromethyl)-N-({5-[4-(trifluoromethyl)phenyl]-4H-1,2,4-triazol-3-yl}methyl)imidazo[2,1-f][1,2,4]triazin-4-amine] | 419 nM |
| – | > 20000 nM | FC(F)(F)Oc1ccc(-c2nnc(CNc3nc(N4CCOCC4)nn4c(C(F)(F)F)cnc34)[nH]2)cn1 [Example 19, 2-(morpholin-4-yl)-N-({5-[6-(trifluoromethoxy)pyridin-3-yl]-4H-1,2,4-triazol-3-yl}methyl)-7-(trifluoromethyl)imidazo[2,1-f][1,2,4]triazin-4-amine] | 63.2 nM |
